# Source: US8557992B2, “Heterocyclic fused phenanthrolinone M1 receptor positive allosteric modulators” (Merck Sharp & Dohme Corp., priority 2010, dated 2013)
# Molecular target: T1, acetylcholine muscarinic M1 receptor (hM1) (Homo sapiens, UniProt P11229)
# T1 construct: expressed in transfected cells; host or cells: CHOnfat (CHO cells, Geneticin selection)
# T1 sequence (P11229 1-460): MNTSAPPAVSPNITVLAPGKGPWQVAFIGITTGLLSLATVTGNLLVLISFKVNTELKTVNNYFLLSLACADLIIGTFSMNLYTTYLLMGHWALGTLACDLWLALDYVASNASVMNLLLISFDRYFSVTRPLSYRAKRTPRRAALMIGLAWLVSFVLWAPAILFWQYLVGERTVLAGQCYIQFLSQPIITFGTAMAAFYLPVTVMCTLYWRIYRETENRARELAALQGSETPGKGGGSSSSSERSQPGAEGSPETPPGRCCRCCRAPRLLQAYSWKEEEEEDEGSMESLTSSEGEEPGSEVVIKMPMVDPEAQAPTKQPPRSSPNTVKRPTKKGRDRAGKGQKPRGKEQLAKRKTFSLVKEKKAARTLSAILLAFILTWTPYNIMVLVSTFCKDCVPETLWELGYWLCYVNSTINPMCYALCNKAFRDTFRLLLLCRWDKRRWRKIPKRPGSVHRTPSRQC
# Test: FLIPR intracellular calcium assay for M1 positive allosteric modulator activity in CHOnfat/hM1 cells
# Assay type: cell-based
# Settings: 4 min preincubation, then acetylcholine EC20 (3 nM final), calculated from FLIPR values, read-out: IP Value (inflection point)
# Method: The assay studies the effect of one or several concentrations of test compounds on basal or acetylcholine-stimulated Ca^2+ levels using FLIPR.
# Compounds are prepared and subjected to a preincubation period of 4 min. Thereafter, a single EC20 concentration of acetylcholine is added to each well (3 nM final). The intracellular Ca^2+ level of each sample is measured and compared to an acetylcholine control to determine any modulatory activity.
# Cells: CHOnfat/hM1, hM2, hM3 or hM4 cells are plated 24 hr before the assay at a density of 18,000 cells/well (100 μL) in a 384 well plate. CHOnfat/hM1 and CHOnfat/hM3 Growth Medium: 90% DMEM (Hi Glucose); 10% HI FBS; 2 mM L-glutamine; 0.1 mM NEAA; Pen-Strep; and 1 mg/ml Geneticin, are added. For M2Gqi5CHOnfat and M4Gqi5CHOnfat cells, an additional 600 ug/ml hygromycin is added.
# Equipment: 384 well plate, 120 μL addition plate; 96-well Whatman 2 ml Uniplate Incubator, 37° C., 5% CO2; Skatron EMBLA-384 Plate Washer; Multimek Pipetting System; Genesis Freedom 200 System; Mosquito System; Temo Nanolitre Pipetting System; and FLIPR^384 Fluorometric Imaging Plate Reader System are used.
# Buffers. Assay Buffer: […] Balanced Salt Solution, with 20 mM Hepes, 2.5 mM Probenecid (Sigma P-8761) first dissolved in 1 N NaOH, 1% Bovine Serum Albumin (Sigma A-9647). Dye Loading Buffer: Assay Buffer plus 1% Fetal Bovine Serum and Fluo-4AM/Pluronic Acid Mixture. 2 mM Fluo-4AM ester stock in DMSO (Molecular Probes F-14202) Concentration of 2 μM in buffer for a final concentration of 1 μM in Assay. 20% Pluronic Acid Solution stock, with concentration of 0.04% in Buffer, 0.02% in Assay.
# 65 μL of 2 mM Fluo-4AM are mixed with 130 μL of 20% Pluronic Acid. The resulting solution and 650 μL FBS is added to the assay buffer for a total volume of 65 mL. Positive Controls: 4-Br-A23187: 10 mM in DMSO; final concentration 10 μM. Acetylcholine: 10 mM in water, working stock at both 20 μM and 30 μM in assay buffer, final concentration of 10 μM. This is used to check the maximum stimulation of the CHOK1/hM1 cells. 20 μM (2×) acetylcholine is added in the preincubation part of the assay, and the 30 μM (3×) stock is added in the second part. (EC20) Acetylcholine: 10 mM in water, working stock of 9 nM (3×), and final concentration in assay is 3 nM. This is used after the preincubation with test compounds. Addition of the EC20 Acetylcholine to each well with a test compound will ascertain any modulator activity. 24 wells contain 3 nM Acetylcholine alone as a control.
# Screening Plate Compounds are titrated in 96-well plates (columns 2-11), 100% DMSO, started at a concentration of 15 mM (150× stock concentration), and 3-fold serial dilutions using Genesis Freedom200 System. Four 96-well plates are combined into a 384-well plate using Mosquito Nanolitre Pipetting System by transferring 1 μl of serial diluted compounds to each well, and 1 mM acetylcholine (100× stock concentration) were added as a control. Using Temo, 49 μl assay buffer is added to each well of the 384-well plate right before assay.
# In a 96-well Whatman 2 ml Uniplate, 9 nM Acetylcholine (3×) is pipetted into wells corresponding to the screening compounds, and into control wells. The 30 μM acetylcholine control (3×) is added into control wells, and the 3× agonist plate is transferred into a 384 well plate.
# Cells are washed three times with 100 μL of buffer, leaving 30 μL of buffer in each well. Using Multimek, 30 μL of Dye Loading Buffer is added into each well and incubated at 37° C., 5% CO2 for up to one hr.
# After 60 min, the cells are washed three times with 100 μL of buffer, leaving 30 μL of buffer in each well. The cell plate, screening plate, and agonist addition plates are placed on the platform in the FLIPR and the door closed. A signal test to check background fluorescence and basal fluorescence signal is performed. Laser intensity is adjusted if necessary. […]
row,SMILES,EC50
1,"O=c1c2cc(Cc3ccc(Cl)nc3)c3cccnc3c2ccn1[C@H]1CCCC[C@@H]1O [Example 1, 5-[(6-Chloropyridin-3-yl)methyl]-8-[(1S,2S)-2-hydroxycyclohexyl]-1,8-phenanthrolin-7(8H)-one]",23.5 nM
2,"COc1ccc(Cc2cc3c(=O)n([C@H]4CCOC[C@@H]4O)ccc3c3ncccc23)cn1 [Example 2, 1,5-Anhydro-2,3-dideoxy-3-{5-[(6-methoxypyridin-3-yl)methyl]-7-oxo-1,8-phenanthrolin-8(7H)-yl}-L-threo-pentitol]",20.6 nM
3,CSc1ccc(Cc2cc3c(=O)n([C@H]4CCCC[C@@H]4O)ccc3c3ncccc23)cn1 [Example 3],15 nM
4,O=c1c2cc(Cc3ccnc(OC(F)F)c3)c3cccnc3c2ccn1[C@H]1CCCC[C@@H]1O [Example 4],72 nM
5,Cn1cc(-c2ccc(Cc3cc4c(=O)n([C@H]5CCCC[C@@H]5O)ccc4c4ncccc34)cn2)cn1 [Example 5],1.7 nM
6,"O=c1c2cc(Cc3cccnc3)c3cccnc3c2ccn1[C@H]1CCCC[C@@H]1O [Example 6, 8-[(1S,2S)-2-hydroxycyclohexyl]-5-(pyridin-3-ylmethyl)-1,8-phenanthrolin-7(8H)-one]",28.6 nM

# Same assay, conditions: Table 1, unit inferred, potentiation of acetylcholine EC20 (3 nM final), read-out: H Pot.
row,SMILES,EC50
1,COc1ccc(Cc2cc3c(=O)n([C@H]4CCCC[C@@H]4O)ccc3c3ncccc23)cc1 [Example 7],21 nM
2,COc1ccc(Cc2cc3c(=O)n([C@H]4CCOC[C@@H]4O)ccc3c3ncccc23)cc1 [Example 8],6.2 nM
3,COc1ccc(Cc2cc3c(=O)n([C@H]4CCCC[C@@H]4O)ccc3c3ncccc23)cn1 [Example 9],22.5 nM
4,COc1cc(Cc2cc3c(=O)n([C@H]4CCCC[C@@H]4O)ccc3c3ncccc23)ccn1 [Example 10],21.9 nM
5,O=c1c2cc(Cc3ccnc(Cl)c3)c3cccnc3c2ccn1[C@H]1CCCC[C@@H]1O [Example 11],20.5 nM
6,Cc1cc(Cc2cc3c(=O)n([C@H]4CCCC[C@@H]4O)ccc3c3ncccc23)ccn1 [Example 12],24 nM
7,O=c1c2cc(Cc3ccc(OC(F)F)nc3)c3cccnc3c2ccn1[C@H]1CCCC[C@@H]1O [Example 13],55 nM
8,Cc1cc(Cc2cc3c(=O)n([C@H]4CCOC[C@@H]4O)ccc3c3ncccc23)ccn1 [Example 14],16.8 nM
